Measured values: PubChem BioAssay AID2060503 (Molecular Pharmacology Branch, DTP, NCI, 2025)
Several values for one entry are separate records, joined by “and”; a condition that tells them apart may be missing. Equal entries are not always repeated.

System: 817829-284-R-J1-PDC complex spheroids, viability
Assay: Anticancer human tumor 817829-284-R-J1-PDC patient-derived colon adenocarcinoma cell line growth inhibition [GQUAD]
Details: for viability, T/C: stronger effect = lower value; for IC50: curve of compound
From the text: DNA G-quadruplex Stabilizer Agents in Combinations in Complex Spheroids
A high-throughput screen of multi-cell type tumor spheroids was designed to identify active combinations of DNA G-quadruplex stabilizer agents and targeted small molecules. Complex spheroids include a stromal component modeled by human endothelial cells (HUVEC) and fibroblasts modeled by human mesenchymal stem cells (MSCs). The concentration ranges selected for each drug and investigational agent were based upon clinically achievable concentrations if the clinical Cmax of the agent was known.
Compounds. The drugs and investigational agents: pidnarulex (CX-5461; NSC782164), APTO-253 (NSC789042), BRACO-19 (NSC847499), peposertib (NSC802822), ceralasertib (NSC780249), elimusertib (NSC800525), camonsertib (NSC841442), AZD-1390 (NSC803789), olaparib (NSC753686), talazoparib (NSC767125), ART-558 (NSC835418), sotorasib (NSC818433), MRTX-1133 (NSC836407), SN-38 (NSC673596), topotecan (NSC609699), etoposide (NSC141540), doxorubicin (NSC123127), gemcitabine (NSC613327), 5-fluorouracil (NSC19893), paclitaxel (NSC125973), vemurafenib (NSC761431), panobinostat (NSC761190), R-306465 (JNJ-16241199; NSC773264), adavosertib (NSC754352), TP-3654 (NSC805149), carboplatin (NSC241240), KSQ-4279 (NSC840948), and staurosporine (NSC755774) were obtained from the National Cancer Institute (NCI) Developmental Therapeutics Program Chemical Repository (34). The FDA-approved anticancer drug set is available from the NCI Developmental Therapeutics Program. […] The stock solutions were prepared in dimethyl sulfoxide (DMSO, Sigma-Aldrich, St. Louis, MO, cat. D2650) at 800-fold the tested concentration and stored at -70 degrees C prior to their use. All drugs and investigational agents were tested over a range starting from a high concentration at or near the clinical Cmax and decreasing in half-log increments. If the clinical Cmax for an agent had not been determined, the highest concentration tested was 10 microM.
2.3 Cell Culture. All cells were maintained in an incubator at 37 degrees C and 5% CO2 with 95% humidity. The PDC lines were cultured according to standard operating procedures established by the NCI PDMR. All PDCs were thawed and cultured in Matrigel-coated flasks prepared with a working solution of 1X Ham's F-12 nutrient mix, without supplementation (Invitrogen, cat. 11765054), 100 U/mL penicillin-streptomycin (Invitrogen, cat. 15140122), and 2.5% Matrigel (Corning Inc., cat. 354248) for the first three passages. The 857933-349-R-J2-PDC line was cultured in 6C/Colon 1B media, which includes advanced DMEM/F-12 (Thermo Fisher Scientific, cat. 12634028), 10 mM HEPES (Thermo Fisher Scientific, cat. 15630080), 1X GlutaMAX supplement (Thermo Fisher Scientific, cat. 35050061), 0.1 mg/mL primocin (InvivoGen, cat. ant-pm-2), 10% defined fetal bovine serum, heat inactivated (HyClone Laboratories Inc., cat. SH30070.03HI), 50% L-WRN conditioned media (ATCC, cat. CRL-3276), 1.25 mM N-Acetyl-L-cysteine (Sigma-Aldrich, cat. A9165), 10 mM nicotinamide (Sigma-Aldrich, cat. N0636), 1X B-27 supplement (Thermo Fisher Scientific, cat. 17504044), 1X N-2 supplement (Thermo Fisher Scientific, cat. 17502048), 10 microM Y-27632 dihydrochloride (Tocris Bioscience, cat. 1254), and 50 ng/mL human EGF recombinant protein (Thermo Fisher Scientific, cat. PHG0311). The 485176-168-R4-J1-PDC line was cultured in Panc media, which includes all 6C/Colon 1B media components plus 100 ng/mL human FGF-10 (Thermo Fisher Scientific, cat. 100-26), 500 nM SB-431542 (Selleckchem, cat. S1067), and gastrin (Tocris, cat. 3006).
[…]
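Also: spheroids exposed to agents for 7 days before readout.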
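For viability, T/C in this document: percent viability relative to DMSO vehicle control taken as 100%.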

Row | Compound | IC50 | viability, T/C (compound 0.000999 µM) | viability, T/C (compound 0.00316 µM) | viability, T/C (compound 0.00999 µM) | viability, T/C (compound 0.0316 µM) | viability, T/C (compound 0.0999 µM) | viability, T/C (compound 0.316 µM) | viability, T/C (compound 0.1 µM) | viability, T/C (compound 1 µM) | viability, T/C (compound 3.16 µM) | viability, T/C (compound 10 µM)
1 | CC[C@@]1(O)C(=O)OCc2c1cc1n(c2=O)Cc2cc3c(CN(C)C)c(O)ccc3nc2-1 | 37.6 nM and 59.5 nM and 30.1 nM | 107% and 116% and 105% | 94.3% (2×) and 87.9% | 107% (2×) and 109% | 53.6% and 60.3% and 47.5% | 33.9% and 45.5% and 27.7% | 26.1% and 37.7% and 29.7% |  |  |  | 
2 | CC1COCCN1c1cc(C2(S(C)(=N)=O)CC2)nc(-c2ccnc3[nH]ccc23)n1 (stereo not given) | 649 nM and 654 nM and 697 nM |  |  |  | 112% and 93.9% and 91.7% |  | 93.1% and 88.9% and 90% | 89.1% and 102% and 105% | 24.1% and 27.1% and 31.6% | 11% and 9.68% and 11.2% | 8.31% and 9.22% and 9.36%
3 | C#Cc1c(F)ccc2cc(O)cc(-c3ncc4c(N5CC6CCC(C5)N6)nc(OCC56CCCN5CC(F)C6)nc4c3F)c12 (stereo not given) | > 10000 nM |  |  |  | 103% and 97.4% and 94.3% |  | 99.2% and 102% and 103% | 88.4% and 96.9% and 109% | 84.3% and 102% and 93.9% | 110% and 95.8% and 102% | 114% and 104% and 131%

Continued, in another order:

Row | IC50 | Compound | viability, T/C (compound 0.000999 µM) | viability, T/C (compound 0.00316 µM) | viability, T/C (compound 0.00999 µM) | viability, T/C (compound 0.0316 µM) | viability, T/C (compound 0.0999 µM) | viability, T/C (compound 0.316 µM) | viability, T/C (compound 0.1 µM) | viability, T/C (compound 1 µM) | viability, T/C (compound 3.16 µM) | viability, T/C (compound 10 µM)
4 | > 10000 nM and 6030 nM | COc1ccc([C@@H](O)c2cc(-c3ncnc4cc(N5CCOCC5)ccc34)c(F)cc2Cl)nn1 |  |  |  | 103% and 96.1% and 90.7% |  | 106% and 104% and 100% | 90.9% and 95.3% and 105% | 80.6% and 84.1% and 83.6% | 84.3% and 82.3% and 64.7% | 53.4% and 67.6% and 39.1%
5 | 46.4 nM and < 31.6 nM and 44.4 nM | CC1COCCN1c1cc(-c2ccnn2C)c2ccnc(-c3ccn[nH]3)c2n1 (stereo not given) |  |  |  | 67.1% and 49.9% and 63.2% |  | 8.87% and 9.11% and 9.13% | 15.9% and 20.1% and 19.1% | 5.41% and 7.67% and 7.19% | 5.54% and 7.47% and 5.88% | 4.28% and 5.96% and 5.46%
